Data from BigSolDB 2.1.

CCCN(CCc1cccs1)[C@H]1CCc2c(O)cccc2C1
solubility (mole fraction)
Settings | in ethanol | in ethyl acetate | in isopropanol | in isopropyl acetate | in methanol | in methyl acetate | in n-butanol | in n-butyl acetate | in n-propanol | in n-propyl acetate
278.15 K | 0.00236 | 0.0243 | 0.00273 | 0.0201 | 0.00131 | 0.0124 | 0.00758 | 0.0311 | 0.00555 | 0.0247
283.15 K | 0.00398 | 0.0303 | 0.00418 | 0.0257 | 0.00249 | 0.0167 | 0.0105 | 0.0368 | 0.00758 | 0.0305
288.15 K | 0.00677 | 0.0369 | 0.00598 | 0.0314 | 0.00379 | 0.0211 | 0.0129 | 0.0433 | 0.0103 | 0.0371
293.15 K | 0.00912 | 0.0437 | 0.00845 | 0.0381 | 0.00531 | 0.0262 | 0.0163 | 0.051 | 0.0138 | 0.0435
298.15 K | 0.012 | 0.0512 | 0.0105 | 0.046 | 0.00696 | 0.0323 | 0.0222 | 0.0597 | 0.0175 | 0.052
303.15 K | 0.0183 | 0.0601 | 0.0163 | 0.0553 | 0.0107 | 0.0393 | 0.0306 | 0.0688 | 0.0237 | 0.0612
308.15 K | 0.0239 | 0.0707 | 0.0219 | 0.0661 | 0.0161 | 0.0482 | 0.0387 | 0.08 | 0.0298 | 0.0716
313.15 K | 0.0345 | 0.0812 | 0.0311 | 0.0782 | 0.0248 | 0.0587 | 0.0467 | 0.0915 | 0.0399 | 0.0834
